Results from patent US11484539B2, “Compounds and their uses for alleviating menopause-associated symptoms” (Estetra SPRL, priority 2018, dated 2022).

Tested on: post-menopausal women
Assay: Hot Flush Weekly Weighted Score, dose-finding study
Type: in vivo
Details: for Relative change in Hot Flush Weekly Weighted Score, LS adjusted mean: analysis with placebo grouped with 2.5 and 5 mg; for LS adjusted mean change from baseline in Hot Flush Weekly Weighted Score: 15 mg E4; for Covariate significance, covariate trt1, p_value, relative change in Hot Flush Weekly Weighted Score: 15 mg vs placebo grouped with 2.5 and 5 mg
Description: Further, the terms “Hot Flush Weekly Weighted Score”, as used herein, corresponds to a score taking into account frequency and severity which is calculated by using the severity score (as calculated above): [(1× No. of mild VMS)+(2× No. of moderate VMS)+(3× No. of severe VMS)] during a 7 day period.
Such a weighted score was for example used by Notelovitz et al. (“Initial 17β-Estradiol Dose for Treating Vasomotor Symptoms”; Obstetrics and Gynaecology, Vol. 95(5), May 2000, p. 726-731). This score was used to generate the data included in Example 1 further below, under section A. c) “Hot Flush Weekly Weighted Score”.

SMILES: C[C@]12CC[C@@H]3c4ccc(O)cc4CC[C@H]3[C@@H]1[C@@H](O)[C@@H](O)[C@@H]2O [E4, 1,3,5 (10)-estratrien-3,15alpha,16alpha,17beta-tetrol]
- Relative change (% from baseline) in Hot Flush Weekly Weighted Score, mean (10 mg E4 QD per os, week 9): −67%
- Mean change from baseline in Hot Flush Weekly Weighted Score (10 mg E4 QD per os, week 10): −109.514
- Relative change (% from baseline) in Hot Flush Weekly Weighted Score, mean (10 mg E4 QD per os, week 10): −68%
- Mean change from baseline in Hot Flush Weekly Weighted Score (10 mg E4 QD per os, week 11): −109.532
- Relative change (% from baseline) in Hot Flush Weekly Weighted Score, mean (10 mg E4 QD per os, week 11): −69%
- Mean change from baseline in Hot Flush Weekly Weighted Score (10 mg E4 QD per os, week 12): −111.764
- Relative change (% from baseline) in Hot Flush Weekly Weighted Score, mean (10 mg E4 QD per os, week 12): −70%
- Difference with placebo, LS adjusted mean, absolute change in Hot Flush Weekly Weighted Score (10 mg E4 vs placebo, week 4): −7.296
- Difference with placebo, LS adjusted mean, absolute change in Hot Flush Weekly Weighted Score (10 mg E4 vs placebo, week 12): −5.078
- Differences with placebo (including ineffective doses 2.5 mg and 5 mg), relative change in Hot Flush Weekly Weighted Score, LS adjusted mean (10.0 mg vs 0 mg, week 4): −0.06006
- Differences with placebo (including ineffective doses 2.5 mg and 5 mg), relative change in Hot Flush Weekly Weighted Score, p_value (10.0 mg vs 0 mg, week 4): 0.4167
- Differences with placebo, relative change in weekly weighted score, p_value (10.0 mg vs 0 mg, week 4): 0.6745
- Differences with placebo (including ineffective doses 2.5 mg and 5 mg), relative change in Hot Flush Weekly Weighted Score, LS adjusted mean (10.0 mg vs 0 mg, week 12): −0.08625
- Differences with placebo (including ineffective doses 2.5 mg and 5 mg), relative change in Hot Flush Weekly Weighted Score, p_value (10.0 mg vs 0 mg, week 12): 0.1404
- Differences with placebo, relative change in weekly weighted score, p_value (10.0 mg vs 0 mg, week 12): 0.7861
- Relative change (% from baseline) in Hot Flush Weekly Weighted Score, mean (10 mg, Week 12): −69%
- Relative change (% from baseline) in weekly weighted score, LS adjusted mean (10 mg, Week 12): −0.6994
- Relative change (% from baseline) in Hot Flush Weekly Weighted Score, mean (10 mg, week 0): 0%
- Relative change (% from baseline) in Hot Flush Weekly Weighted Score, mean (10 mg, week 1): −20%
- Relative change (% from baseline) in Hot Flush Weekly Weighted Score, mean (10 mg, week 2): −34%
- Relative change (% from baseline) in Hot Flush Weekly Weighted Score, mean (10 mg, week 3): −46%
- Relative change (% from baseline) in Hot Flush Weekly Weighted Score, mean (10 mg, week 4): −53%
- Relative change (% from baseline) in weekly weighted score, LS adjusted mean (10 mg, week 4): −0.5419
- Relative change in Hot Flush Weekly Weighted Score, LS adjusted mean (10 mg, week 4): −0.5137
- Relative change (% from baseline) in Hot Flush Weekly Weighted Score, mean (10 mg, week 5): −57%
- Relative change (% from baseline) in Hot Flush Weekly Weighted Score, mean (10 mg, week 6): −62%
- Relative change (% from baseline) in Hot Flush Weekly Weighted Score, mean (10 mg, week 7): −64%
- Relative change (% from baseline) in Hot Flush Weekly Weighted Score, mean (10 mg, week 8): −66%
- Relative change (% from baseline) in Hot Flush Weekly Weighted Score, mean (10 mg, week 9): −66%
- Relative change (% from baseline) in Hot Flush Weekly Weighted Score, mean (10 mg, week 10): −68%
- Relative change (% from baseline) in Hot Flush Weekly Weighted Score, mean (10 mg, week 11): −68%
- Relative change in Hot Flush Weekly Weighted Score, LS adjusted mean (10 mg, week 12): −0.6776
- LS adjusted mean change from baseline in Hot Flush Weekly Weighted Score (week 4): −106.3
- LS adjusted mean change from baseline in Hot Flush Weekly Weighted Score (week 12): −130.6
- Mean change from baseline in Hot Flush Weekly Weighted Score (15 mg E4 QD per os, week 0): 2.219
- Mean change from baseline in Hot Flush Weekly Weighted Score (15 mg E4 QD per os, week 1): −33.1745
- Relative change (% from baseline) in Hot Flush Weekly Weighted Score, mean (15 mg E4 QD per os, week 1): −19%
- Mean change from baseline in Hot Flush Weekly Weighted Score (15 mg E4 QD per os, week 2): −67.6983
- Relative change (% from baseline) in Hot Flush Weekly Weighted Score, mean (15 mg E4 QD per os, week 2): −43%
- Mean change from baseline in Hot Flush Weekly Weighted Score (15 mg E4 QD per os, week 3): −85.1915
- Relative change (% from baseline) in Hot Flush Weekly Weighted Score, mean (15 mg E4 QD per os, week 3): −56%
- Mean change from baseline in Hot Flush Weekly Weighted Score (15 mg E4 QD per os, week 4): −98.8329
- Relative change (% from baseline) in Hot Flush Weekly Weighted Score, mean (15 mg E4 QD per os, week 4): −66%
- Mean change from baseline in Hot Flush Weekly Weighted Score (15 mg E4 QD per os, week 5): −105.223
- Relative change (% from baseline) in Hot Flush Weekly Weighted Score, mean (15 mg E4 QD per os, week 5): −70%
- Mean change from baseline in Hot Flush Weekly Weighted Score (15 mg E4 QD per os, week 6): −110.268
- Relative change (% from baseline) in Hot Flush Weekly Weighted Score, mean (15 mg E4 QD per os, week 6): −74%
- Mean change from baseline in Hot Flush Weekly Weighted Score (15 mg E4 QD per os, week 7): −115.263
- Relative change (% from baseline) in Hot Flush Weekly Weighted Score, mean (15 mg E4 QD per os, week 7): −78%
- Mean change from baseline in Hot Flush Weekly Weighted Score (15 mg E4 QD per os, week 8): −115.656
- Relative change (% from baseline) in Hot Flush Weekly Weighted Score, mean (15 mg E4 QD per os, week 8): −78%
- Mean change from baseline in Hot Flush Weekly Weighted Score (15 mg E4 QD per os, week 9): −118.578
- Relative change (% from baseline) in Hot Flush Weekly Weighted Score, mean (15 mg E4 QD per os, week 9): −80%
- Mean change from baseline in Hot Flush Weekly Weighted Score (15 mg E4 QD per os, week 10): −116.853
- Relative change (% from baseline) in Hot Flush Weekly Weighted Score, mean (15 mg E4 QD per os, week 10): −79%
- Mean change from baseline in Hot Flush Weekly Weighted Score (15 mg E4 QD per os, week 11): −119.365
- Relative change (% from baseline) in Hot Flush Weekly Weighted Score, mean (15 mg E4 QD per os, week 11): −80%
- Mean change from baseline in Hot Flush Weekly Weighted Score (15 mg E4 QD per os, week 12): −121.777
- Relative change (% from baseline) in Hot Flush Weekly Weighted Score, mean (15 mg E4 QD per os, week 12): −82%
- Difference with placebo, LS adjusted mean, absolute change in Hot Flush Weekly Weighted Score (15 mg E4 vs placebo, week 4): −28.06
- Difference with placebo, LS adjusted mean, absolute change in Hot Flush Weekly Weighted Score (15 mg E4 vs placebo, week 12): −25.91
- Differences with placebo (including ineffective doses 2.5 mg and 5 mg), relative change in Hot Flush Weekly Weighted Score, LS adjusted mean (15.0 mg vs 0 mg, week 4): −0.1788
- Differences with placebo (including ineffective doses 2.5 mg and 5 mg), relative change in Hot Flush Weekly Weighted Score, p_value (15.0 mg vs 0 mg, week 4): 0.00178
- Differences with placebo, relative change in weekly weighted score, p_value (15.0 mg vs 0 mg, week 4): 0.0267
- Differences with placebo (including ineffective doses 2.5 mg and 5 mg), relative change in Hot Flush Weekly Weighted Score, LS adjusted mean (15.0 mg vs 0 mg, week 12): −0.177
- Differences with placebo (including ineffective doses 2.5 mg and 5 mg), relative change in Hot Flush Weekly Weighted Score, p_value (15.0 mg vs 0 mg, week 12): 0.00097
- Differences with placebo, relative change in weekly weighted score, p_value (15.0 mg vs 0 mg, week 12): 0.0276
- Relative change (% from baseline) in Hot Flush Weekly Weighted Score, mean (15 mg, Week 12): −81%
- Relative change (% from baseline) in weekly weighted score, LS adjusted mean (15 mg, Week 12): −0.8122
- Relative change (% from baseline) in Hot Flush Weekly Weighted Score, mean (15 mg, week 0): 0%
- Relative change (% from baseline) in Hot Flush Weekly Weighted Score, mean (15 mg, week 1): −22%
- Relative change (% from baseline) in Hot Flush Weekly Weighted Score, mean (15 mg, week 2): −45%
- Relative change (% from baseline) in Hot Flush Weekly Weighted Score, mean (15 mg, week 3): −56%
- Relative change (% from baseline) in Hot Flush Weekly Weighted Score, mean (15 mg, week 4): −66%
- Relative change (% from baseline) in weekly weighted score, LS adjusted mean (15 mg, week 4): −0.6503
- Relative change in Hot Flush Weekly Weighted Score, LS adjusted mean (15 mg, week 4): −0.6324
- Relative change (% from baseline) in Hot Flush Weekly Weighted Score, mean (15 mg, week 5): −70%
- Relative change (% from baseline) in Hot Flush Weekly Weighted Score, mean (15 mg, week 6): −72%
- Relative change (% from baseline) in Hot Flush Weekly Weighted Score, mean (15 mg, week 7): −75%
- Relative change (% from baseline) in Hot Flush Weekly Weighted Score, mean (15 mg, week 8): −76%
- Relative change (% from baseline) in Hot Flush Weekly Weighted Score, mean (15 mg, week 9): −78%
- Relative change (% from baseline) in Hot Flush Weekly Weighted Score, mean (15 mg, week 10): −77%
- Relative change (% from baseline) in Hot Flush Weekly Weighted Score, mean (15 mg, week 11): −79%
- Relative change in Hot Flush Weekly Weighted Score, LS adjusted mean (15 mg, week 12): −0.7683
- Covariate significance, covariate trt1, p_value, relative change in Hot Flush Weekly Weighted Score (week 4, 10 mg): 0.0037
- Covariate significance, covariate trt1, p_value, relative change in Hot Flush Weekly Weighted Score (week 12, 10 mg): 0.0015
